{
  "source": "the supplement of paper PMC6411743",
  "key": {"guanosine triphosphate": {"compound": "Nc1nc2c(ncn2[C@@H]2O[C@H](COP(=O)(O)OP(=O)(O)OP(=O)(O)O)[C@@H](O)[C@H]2O)c(=O)[nH]1 [guanosine triphosphate]", "experiment": "pEC50 of GTP-induced change in protein thermal stability (2D-TPP)", "method_in_brief": "(§1)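 In three independent experiments, Jurkat crude lysate received five concentrations including vehicle for 10 min at room temperature before a 3 min heating step at 12 temperatures (42–63.9 °C). NP40 and benzonase were then added for 60 min at 4 °C, and soluble protein after ultracentrifugation was read out by TMT LC-MS/MS as median-normalised fold changes against vehicle at each temperature. Dose-response fits per replicate over adjacent temperature pairs yielded pEC50, with hits called by permutation-based false discovery rate control.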"}, "adenosine triphosphate": {"compound": "Nc1ncnc2c1ncn2[C@@H]1O[C@H](COP(=O)(O)OP(=O)(O)OP(=O)(O)O)[C@@H](O)[C@H]1O [adenosine triphosphate]", "experiment": "pEC50 of ATP-induced change in protein thermal stability (2D-TPP)", "method_in_brief": "as §1"}},
  "data": [
    {"target": "HARS (effect direction: stabilized) (UniProt P12081)", "values": [
      {"measurement": "pEC50", "setting": "guanosine triphosphate", "result": 3.69},
      {"measurement": "pEC50", "setting": "adenosine triphosphate", "result": 3.97}
    ]},
    {"target": "GIMAP6 (effect direction: stabilized) (UniProt Q6P9H5)", "values": [
      {"measurement": "pEC50", "setting": "guanosine triphosphate", "result": 3.81},
      {"measurement": "pEC50", "setting": "adenosine triphosphate", "result": 4.24}
    ]},
    {"target": "RAB4A (effect direction: stabilized) (UniProt P20338)", "values": [
      {"measurement": "pEC50", "setting": "guanosine triphosphate", "result": 4.52},
      {"measurement": "pEC50", "setting": "adenosine triphosphate", "result": 3.45}
    ]},
    {"target": "CCT3 (effect direction: stabilized) (UniProt P49368)", "values": [
      {"measurement": "pEC50", "setting": "guanosine triphosphate", "result": 3.62},
      {"measurement": "pEC50", "setting": "adenosine triphosphate", "result": 4.53}
    ]},
    {"target": "RHEB (effect direction: stabilized) (UniProt Q15382)", "values": [
      {"measurement": "pEC50", "setting": "guanosine triphosphate", "result": 4.45},
      {"measurement": "pEC50", "setting": "adenosine triphosphate", "result": 3.28}
    ]},
    {"target": "SUCLG2 (effect direction: stabilized) (UniProt Q96I99)", "values": [
      {"measurement": "pEC50", "setting": "guanosine triphosphate", "result": 3.5},
      {"measurement": "pEC50", "setting": "adenosine triphosphate", "result": 3.43}
    ]},
    {"target": "TNPO3 (effect direction: stabilized) (UniProt Q9Y5L0)", "values": [
      {"measurement": "pEC50", "setting": "guanosine triphosphate", "result": 3.76},
      {"measurement": "pEC50", "setting": "adenosine triphosphate", "result": 3.08}
    ]},
    {"target": "MCM4 (effect direction: stabilized) (UniProt P33991)", "values": [
      {"measurement": "pEC50", "setting": "guanosine triphosphate", "result": 3.86},
      {"measurement": "pEC50", "setting": "adenosine triphosphate", "result": 3.88}
    ]},
    {"target": "OLA1 (effect direction: stabilized) (UniProt Q9NTK5)", "values": [
      {"measurement": "pEC50", "setting": "guanosine triphosphate", "result": 3.87},
      {"measurement": "pEC50", "setting": "adenosine triphosphate", "result": 3.81}
    ]},
    {"target": "UniProt P61106 (effect direction: stabilized)", "values": [
      {"measurement": "pEC50", "setting": "guanosine triphosphate", "result": 4.33},
      {"measurement": "pEC50", "setting": "adenosine triphosphate", "result": 3.66}
    ]},
    {"target": "AUP1 (effect direction: stabilized) (UniProt Q9Y679)", "values": [
      {"measurement": "pEC50", "setting": "guanosine triphosphate", "result": 3.82},
      {"measurement": "pEC50", "setting": "adenosine triphosphate", "result": 3.27}
    ]},
    {"target": "EHD1 (effect direction: stabilized) (UniProt Q9H4M9)", "values": [
      {"measurement": "pEC50", "setting": "guanosine triphosphate", "result": 4.34},
      {"measurement": "pEC50", "setting": "adenosine triphosphate", "result": 3.88}
    ]},
    {"target": "HARS2 (effect direction: stabilized) (UniProt P49590)", "values": [
      {"measurement": "pEC50", "setting": "guanosine triphosphate", "result": 3.55},
      {"measurement": "pEC50", "setting": "adenosine triphosphate", "result": 4.13}
    ]},
    {"target": "CAMK4 (effect direction: stabilized) (UniProt Q16566)", "values": [
      {"measurement": "pEC50", "setting": "guanosine triphosphate", "result": 3.77},
      {"measurement": "pEC50", "setting": "adenosine triphosphate", "result": 3.88}
    ]},
    {"target": "ACSL3 (effect direction: stabilized) (UniProt O95573)", "values": [
      {"measurement": "pEC50", "setting": "guanosine triphosphate", "result": 3.9},
      {"measurement": "pEC50", "setting": "adenosine triphosphate", "result": 3.91}
    ]},
    {"target": "ATP13A1 (effect direction: stabilized) (UniProt Q9HD20)", "values": [
      {"measurement": "pEC50", "setting": "guanosine triphosphate", "result": 4.37},
      {"measurement": "pEC50", "setting": "adenosine triphosphate", "result": 4.22}
    ]},
    {"target": "ATL3 (effect direction: stabilized) (UniProt Q6DD88)", "values": [
      {"measurement": "pEC50", "setting": "guanosine triphosphate", "result": 3.44},
      {"measurement": "pEC50", "setting": "adenosine triphosphate", "result": 3.19}
    ]},
    {"target": "MCM2 (effect direction: stabilized) (UniProt P49736)", "sequence (P49736 whole entry)": "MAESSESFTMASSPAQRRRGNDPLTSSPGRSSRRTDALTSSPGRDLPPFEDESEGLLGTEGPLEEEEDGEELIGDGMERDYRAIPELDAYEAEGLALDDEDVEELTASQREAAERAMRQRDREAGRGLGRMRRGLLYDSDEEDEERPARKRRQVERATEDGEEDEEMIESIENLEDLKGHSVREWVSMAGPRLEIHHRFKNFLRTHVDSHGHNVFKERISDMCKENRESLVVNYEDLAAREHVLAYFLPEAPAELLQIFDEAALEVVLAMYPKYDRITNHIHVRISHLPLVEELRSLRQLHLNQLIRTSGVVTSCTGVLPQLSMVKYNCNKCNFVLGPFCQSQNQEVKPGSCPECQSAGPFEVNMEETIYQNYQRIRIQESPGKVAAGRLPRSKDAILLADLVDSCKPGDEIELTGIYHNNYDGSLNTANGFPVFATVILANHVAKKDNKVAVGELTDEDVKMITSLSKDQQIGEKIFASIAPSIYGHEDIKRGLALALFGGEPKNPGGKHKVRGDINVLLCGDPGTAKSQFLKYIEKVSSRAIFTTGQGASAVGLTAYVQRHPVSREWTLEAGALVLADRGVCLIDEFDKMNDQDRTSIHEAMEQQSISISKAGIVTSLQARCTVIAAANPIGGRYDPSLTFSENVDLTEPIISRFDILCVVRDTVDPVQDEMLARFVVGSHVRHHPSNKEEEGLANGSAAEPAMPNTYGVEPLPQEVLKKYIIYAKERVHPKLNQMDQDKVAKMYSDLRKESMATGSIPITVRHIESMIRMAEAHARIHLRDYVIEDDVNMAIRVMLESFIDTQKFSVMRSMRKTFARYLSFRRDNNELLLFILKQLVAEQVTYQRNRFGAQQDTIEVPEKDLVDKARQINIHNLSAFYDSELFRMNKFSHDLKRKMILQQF", "values": [
      {"measurement": "pEC50", "setting": "guanosine triphosphate", "result": 4.06},
      {"measurement": "pEC50", "setting": "adenosine triphosphate", "result": 3.58}
    ]},
    {"target": "DHX15 (effect direction: stabilized) (UniProt O43143)", "values": [
      {"measurement": "pEC50", "setting": "guanosine triphosphate", "result": 3.93},
      {"measurement": "pEC50", "setting": "adenosine triphosphate", "result": 3.9}
    ]},
    {"target": "GNAI2 (effect direction: stabilized) (UniProt P04899)", "values": [
      {"measurement": "pEC50", "setting": "guanosine triphosphate", "result": 4.51},
      {"measurement": "pEC50", "setting": "adenosine triphosphate", "result": 2.85}
    ]},
    {"target": "UniProt P17252 (effect direction: stabilized)", "values": [
      {"measurement": "pEC50", "setting": "guanosine triphosphate", "result": 4.06},
      {"measurement": "pEC50", "setting": "adenosine triphosphate", "result": 4.25}
    ]},
    {"target": "TUBG1 (effect direction: stabilized) (UniProt P23258)", "values": [
      {"measurement": "pEC50", "setting": "guanosine triphosphate", "result": 4.06},
      {"measurement": "pEC50", "setting": "adenosine triphosphate", "result": 3.17}
    ]},
    {"target": "UCK2 (effect direction: stabilized) (UniProt Q9BZX2)", "sequence (Q9BZX2 whole entry)": "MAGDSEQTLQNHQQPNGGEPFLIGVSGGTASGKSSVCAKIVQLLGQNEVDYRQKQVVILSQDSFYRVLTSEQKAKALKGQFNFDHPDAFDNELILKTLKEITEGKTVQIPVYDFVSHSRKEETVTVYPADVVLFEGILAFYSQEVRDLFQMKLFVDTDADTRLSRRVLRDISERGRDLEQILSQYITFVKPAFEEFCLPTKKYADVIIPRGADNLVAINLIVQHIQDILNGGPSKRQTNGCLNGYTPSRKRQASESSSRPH", "values": [
      {"measurement": "pEC50", "setting": "guanosine triphosphate", "result": 3.9},
      {"measurement": "pEC50", "setting": "adenosine triphosphate", "result": 3.28}
    ]},
    {"target": "EEF2 (effect direction: stabilized) (UniProt P13639)", "values": [
      {"measurement": "pEC50", "setting": "guanosine triphosphate", "result": 3.94},
      {"measurement": "pEC50", "setting": "adenosine triphosphate", "result": 3.58}
    ]},
    {"target": "GSPT1 (effect direction: stabilized) (UniProt P15170)", "values": [
      {"measurement": "pEC50", "setting": "guanosine triphosphate", "result": 4.01},
      {"measurement": "pEC50", "setting": "adenosine triphosphate", "result": "< 2.7"}
    ]},
    {"target": "IARS2 (effect direction: stabilized) (UniProt Q9NSE4)", "sequence (Q9NSE4 whole entry)": "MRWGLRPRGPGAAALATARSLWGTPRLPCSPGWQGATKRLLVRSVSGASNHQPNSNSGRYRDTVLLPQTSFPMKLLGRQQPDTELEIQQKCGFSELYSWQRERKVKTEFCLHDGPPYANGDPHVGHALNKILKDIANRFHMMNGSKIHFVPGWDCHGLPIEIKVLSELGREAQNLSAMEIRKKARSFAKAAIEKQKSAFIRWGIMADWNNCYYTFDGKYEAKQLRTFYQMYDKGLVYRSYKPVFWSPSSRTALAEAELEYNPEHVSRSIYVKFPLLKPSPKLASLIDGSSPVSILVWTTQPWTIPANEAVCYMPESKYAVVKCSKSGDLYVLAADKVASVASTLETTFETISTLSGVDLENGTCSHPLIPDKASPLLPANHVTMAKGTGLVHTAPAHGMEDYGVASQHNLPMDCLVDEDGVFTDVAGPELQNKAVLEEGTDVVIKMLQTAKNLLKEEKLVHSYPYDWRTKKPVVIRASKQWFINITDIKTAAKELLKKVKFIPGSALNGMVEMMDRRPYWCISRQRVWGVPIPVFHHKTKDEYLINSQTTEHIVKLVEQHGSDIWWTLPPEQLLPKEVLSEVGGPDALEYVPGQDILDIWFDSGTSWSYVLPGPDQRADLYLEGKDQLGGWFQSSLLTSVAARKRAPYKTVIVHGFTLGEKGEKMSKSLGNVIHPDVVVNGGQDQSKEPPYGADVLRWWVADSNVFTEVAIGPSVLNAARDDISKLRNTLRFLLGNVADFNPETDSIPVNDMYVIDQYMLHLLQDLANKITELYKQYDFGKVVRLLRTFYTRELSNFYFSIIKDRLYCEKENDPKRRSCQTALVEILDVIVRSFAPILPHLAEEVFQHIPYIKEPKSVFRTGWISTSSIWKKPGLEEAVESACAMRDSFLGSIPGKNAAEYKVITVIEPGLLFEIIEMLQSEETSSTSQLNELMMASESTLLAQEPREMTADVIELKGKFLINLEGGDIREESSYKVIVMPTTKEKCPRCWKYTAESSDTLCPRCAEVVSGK", "values": [
      {"measurement": "pEC50", "setting": "guanosine triphosphate", "result": 3.71},
      {"measurement": "pEC50", "setting": "adenosine triphosphate", "result": 4.18}
    ]},
    {"target": "GMDS (effect direction: stabilized) (UniProt O60547)", "values": [
      {"measurement": "pEC50", "setting": "guanosine triphosphate", "result": 4.02},
      {"measurement": "pEC50", "setting": "adenosine triphosphate", "result": 2.72}
    ]},
    {"target": "NSUN2 (effect direction: stabilized) (UniProt Q08J23)", "values": [
      {"measurement": "pEC50", "setting": "guanosine triphosphate", "result": 3.87},
      {"measurement": "pEC50", "setting": "adenosine triphosphate", "result": "< 2.7"}
    ]},
    {"target": "UniProt Q01130 (effect direction: stabilized)", "sequence (Q01130 whole entry)": "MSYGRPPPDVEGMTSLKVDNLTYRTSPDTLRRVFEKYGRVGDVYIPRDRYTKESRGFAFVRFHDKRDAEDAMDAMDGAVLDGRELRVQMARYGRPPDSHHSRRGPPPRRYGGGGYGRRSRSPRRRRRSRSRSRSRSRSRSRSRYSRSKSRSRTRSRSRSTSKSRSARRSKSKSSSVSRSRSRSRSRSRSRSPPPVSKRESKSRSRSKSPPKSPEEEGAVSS", "values": [
      {"measurement": "pEC50", "setting": "guanosine triphosphate", "result": 3.56},
      {"measurement": "pEC50", "setting": "adenosine triphosphate", "result": 3.23}
    ]},
    {"target": "NME4 (effect direction: stabilized) (UniProt O00746)", "values": [
      {"measurement": "pEC50", "setting": "guanosine triphosphate", "result": 4.44},
      {"measurement": "pEC50", "setting": "adenosine triphosphate", "result": 4.29}
    ]},
    {"target": "GALK1 (effect direction: stabilized) (UniProt P51570)", "sequence (P51570 whole entry)": "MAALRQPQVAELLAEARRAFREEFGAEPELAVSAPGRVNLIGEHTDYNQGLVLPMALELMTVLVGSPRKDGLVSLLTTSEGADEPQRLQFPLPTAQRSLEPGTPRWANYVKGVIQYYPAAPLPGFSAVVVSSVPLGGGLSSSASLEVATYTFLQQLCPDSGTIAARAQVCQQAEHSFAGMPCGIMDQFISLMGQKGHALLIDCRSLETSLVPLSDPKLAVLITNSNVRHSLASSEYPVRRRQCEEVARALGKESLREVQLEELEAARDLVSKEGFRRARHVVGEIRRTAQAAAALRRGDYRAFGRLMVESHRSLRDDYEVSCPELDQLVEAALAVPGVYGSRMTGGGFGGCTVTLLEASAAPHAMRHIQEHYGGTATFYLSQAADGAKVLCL", "values": [
      {"measurement": "pEC50", "setting": "guanosine triphosphate", "result": 4.06},
      {"measurement": "pEC50", "setting": "adenosine triphosphate", "result": 4.02}
    ]},
    {"target": "CLPB (effect direction: stabilized) (UniProt Q9H078)", "values": [
      {"measurement": "pEC50", "setting": "guanosine triphosphate", "result": 4.19},
      {"measurement": "pEC50", "setting": "adenosine triphosphate", "result": 4.02}
    ]},
    {"target": "UAP1L1 (effect direction: stabilized) (UniProt Q3KQV9)", "values": [
      {"measurement": "pEC50", "setting": "guanosine triphosphate", "result": 3.38},
      {"measurement": "pEC50", "setting": "adenosine triphosphate", "result": 3.13}
    ]},
    {"target": "UniProt P61160 (effect direction: stabilized)", "values": [
      {"measurement": "pEC50", "setting": "guanosine triphosphate", "result": 3.99},
      {"measurement": "pEC50", "setting": "adenosine triphosphate", "result": 4.25}
    ]},
    {"target": "ARL2 (effect direction: stabilized) (UniProt P36404)", "sequence (P36404 whole entry)": "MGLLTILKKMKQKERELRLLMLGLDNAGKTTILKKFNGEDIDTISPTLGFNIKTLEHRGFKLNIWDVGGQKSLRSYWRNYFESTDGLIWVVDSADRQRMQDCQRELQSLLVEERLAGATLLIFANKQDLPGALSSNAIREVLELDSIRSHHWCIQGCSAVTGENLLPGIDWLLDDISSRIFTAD", "values": [
      {"measurement": "pEC50", "setting": "guanosine triphosphate", "result": 4.15},
      {"measurement": "pEC50", "setting": "adenosine triphosphate", "result": 3.3}
    ]},
    {"target": "UniProt P62070 (effect direction: stabilized)", "values": [
      {"measurement": "pEC50", "setting": "guanosine triphosphate", "result": 4.08},
      {"measurement": "pEC50", "setting": "adenosine triphosphate", "result": 3.42}
    ]},
    {"target": "ABCB7 (effect direction: stabilized) (UniProt O75027)", "sequence (O75027 whole entry)": "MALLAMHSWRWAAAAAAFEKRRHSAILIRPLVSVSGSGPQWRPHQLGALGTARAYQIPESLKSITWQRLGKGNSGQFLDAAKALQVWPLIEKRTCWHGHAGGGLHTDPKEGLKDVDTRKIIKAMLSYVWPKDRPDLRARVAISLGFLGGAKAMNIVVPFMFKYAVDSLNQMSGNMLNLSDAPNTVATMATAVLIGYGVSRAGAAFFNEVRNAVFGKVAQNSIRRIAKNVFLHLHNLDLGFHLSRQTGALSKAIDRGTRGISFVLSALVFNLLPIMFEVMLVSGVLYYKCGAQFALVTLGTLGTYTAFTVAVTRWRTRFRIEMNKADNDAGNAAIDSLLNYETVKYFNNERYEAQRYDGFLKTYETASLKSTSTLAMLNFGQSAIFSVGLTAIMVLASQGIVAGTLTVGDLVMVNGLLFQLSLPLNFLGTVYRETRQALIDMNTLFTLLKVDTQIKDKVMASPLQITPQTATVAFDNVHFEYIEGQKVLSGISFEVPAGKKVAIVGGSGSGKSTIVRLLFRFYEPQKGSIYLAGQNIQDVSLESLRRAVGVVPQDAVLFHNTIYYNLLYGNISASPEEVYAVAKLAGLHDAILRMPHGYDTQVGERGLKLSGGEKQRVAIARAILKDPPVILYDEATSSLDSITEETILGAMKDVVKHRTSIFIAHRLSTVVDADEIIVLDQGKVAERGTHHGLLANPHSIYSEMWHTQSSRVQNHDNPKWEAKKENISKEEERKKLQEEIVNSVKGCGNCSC", "values": [
      {"measurement": "pEC50", "setting": "guanosine triphosphate", "result": 3.82},
      {"measurement": "pEC50", "setting": "adenosine triphosphate", "result": 3.49}
    ]},
    {"target": "GTPBP3 (effect direction: stabilized) (UniProt Q969Y2)", "values": [
      {"measurement": "pEC50", "setting": "guanosine triphosphate", "result": 4.67},
      {"measurement": "pEC50", "setting": "adenosine triphosphate", "result": 3.74}
    ]},
    {"target": "TBCD (effect direction: stabilized) (UniProt Q9BTW9)", "sequence (Q9BTW9 whole entry)": "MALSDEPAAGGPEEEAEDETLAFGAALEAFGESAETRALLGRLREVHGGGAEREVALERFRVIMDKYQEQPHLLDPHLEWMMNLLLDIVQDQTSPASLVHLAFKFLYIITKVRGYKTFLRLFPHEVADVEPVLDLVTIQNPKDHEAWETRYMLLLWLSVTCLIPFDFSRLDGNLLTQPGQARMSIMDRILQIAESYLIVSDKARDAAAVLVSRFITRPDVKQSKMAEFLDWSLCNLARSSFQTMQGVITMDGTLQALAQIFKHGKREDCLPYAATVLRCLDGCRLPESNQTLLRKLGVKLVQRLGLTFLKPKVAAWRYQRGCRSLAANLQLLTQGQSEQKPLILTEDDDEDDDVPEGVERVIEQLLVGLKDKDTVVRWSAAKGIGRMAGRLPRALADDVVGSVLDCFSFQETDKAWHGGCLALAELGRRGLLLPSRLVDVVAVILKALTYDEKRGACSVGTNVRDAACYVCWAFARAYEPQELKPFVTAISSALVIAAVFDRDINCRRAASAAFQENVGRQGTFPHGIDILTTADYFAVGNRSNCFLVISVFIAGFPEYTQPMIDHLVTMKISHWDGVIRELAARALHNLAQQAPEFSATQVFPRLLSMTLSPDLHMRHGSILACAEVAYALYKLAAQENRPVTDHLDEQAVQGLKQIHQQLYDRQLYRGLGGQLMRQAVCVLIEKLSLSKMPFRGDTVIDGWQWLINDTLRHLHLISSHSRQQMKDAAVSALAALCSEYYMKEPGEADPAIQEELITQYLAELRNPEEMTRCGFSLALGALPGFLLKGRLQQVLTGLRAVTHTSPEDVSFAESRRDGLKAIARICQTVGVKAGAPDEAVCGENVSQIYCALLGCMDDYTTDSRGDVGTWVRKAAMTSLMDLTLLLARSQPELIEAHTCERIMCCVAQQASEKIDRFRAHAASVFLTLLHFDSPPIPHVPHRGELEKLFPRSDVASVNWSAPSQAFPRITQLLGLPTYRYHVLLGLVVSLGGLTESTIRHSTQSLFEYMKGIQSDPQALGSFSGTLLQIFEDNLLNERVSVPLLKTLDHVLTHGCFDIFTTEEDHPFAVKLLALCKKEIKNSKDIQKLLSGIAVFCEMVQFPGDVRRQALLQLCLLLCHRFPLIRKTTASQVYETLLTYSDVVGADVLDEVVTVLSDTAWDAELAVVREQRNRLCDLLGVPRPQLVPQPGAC", "values": [
      {"measurement": "pEC50", "setting": "guanosine triphosphate", "result": 3.7},
      {"measurement": "pEC50", "setting": "adenosine triphosphate", "result": 2.92}
    ]},
    {"target": "BCS1L (effect direction: stabilized) (UniProt Q9Y276)", "values": [
      {"measurement": "pEC50", "setting": "guanosine triphosphate", "result": "< 3.3"},
      {"measurement": "pEC50", "setting": "adenosine triphosphate", "result": 4.07}
    ]}
  ]
}
